Assay: Rate of dissolution in H2O at 25° C. of rebaudioside A polymorph and amorphous forms
Format: physicochemical
Conditions: rating in words
Text: The purification of rebaudioside A by crystallization as described above results in the formation of at least three different polymorphs: Form 1: a rebaudioside A hydrate; Form 2: an anhydrous rebaudioside A; and Form 3: a rebaudioside A solvate. In addition to the at least three polymorph forms of rebaudioside A, the purification of rebaudioside A may result in the formation of an amorphous form of rebaudioside A, Form 4. The aqueous organic solution and temperature of the purification process influence the resulting polymorph and amorphous forms in the substantially pure rebaudioside A composition. FIGS. 1-5 are exemplary powder x-ray diffraction (XRPD) scans of the polymorph and amorphous forms of rebaudioside A: Form 1 (hydrate), Form 2 (anhydrate), Form 3A (methanol solvate), Form 3B (ethanol solvate), and Form 4 (amorphous), respectively.

Substance | Rate of dissolution in H2O at 25° C.
rebaudioside A [Form 3] | High
rebaudioside A [Form 1] | Very low
rebaudioside A [Form 4] | High
rebaudioside A [Form 2] | Intermediate
